Patent publication US20080242878A1, “Semi-Synthetic Taxane Derivatives With Antitumor Activity” (priority 2005, published 2008)

How the values were obtained:
MCF7/R = experiment: Cytotoxicity, SRB test, 72 h exposure, MCF7/R (resistant cells); conditions: for IC50: Homo sapiens, MCF7R, 72 h, read-out: Cytotoxicity (IC50 (nM) 72 h exposure of cells to compound ± SE (SRB test) MCF7/R); for RI (cross-resistance index): IC50 MCF7/R versus IC50 MCF7
MCF7 = experiment: Cytotoxicity, SRB test, 72 h exposure, MCF7; conditions: Homo sapiens, MCF7, 72 h, read-out: Cytotoxicity (IC50 (nM) 72 h exposure of cells to compound ± SE (SRB test) MCF7)

CO/C1=C(\C)C([C@]2(OC(C)=O)CO[C@@H]2CCOCSC)[C@H](OC(=O)c2ccccc2)[C@]2(O)C[C@H](OC(=O)[C@H](O)[C@H](CC(C)C)NC(=O)OC(C)(C)C)C(C)=C(C1=O)C2(C)C (stereo partly drawn) [Ex. 2, 13-(N-Boc-β-isobutyl-isoserinoyl)-9-O-methyl-7-O-methylthiomethyl-C7,8-seco-10-deacetylbaccatin III]
IC50 (MCF7/R): 558 ± 28 nM | RI (cross-resistance index) (MCF7/R): 5.4 | IC50 (MCF7): 103 ± 13 nM

CO/C1=C(\C)C([C@]2(OC(C)=O)CO[C@@H]2CCO)[C@H](OC(=O)c2ccccc2)[C@]2(O)C[C@H](OC(=O)[C@H](O)[C@H](CC(C)C)NC(=O)OC(C)(C)C)C(C)=C(C1=O)C2(C)C (stereo partly drawn) [Ex. 3, 13-(N-Boc-β-isobutyl-isoserinoyl)-9-O-methyl-C7,8-seco-10-deacetylbaccatin III]
IC50 (MCF7/R): 945 ± 40 nM | RI (cross-resistance index) (MCF7/R): 25 | IC50 (MCF7): 38 ± 3.9 nM

CSCOCC[C@H]1OC[C@@]1(OC(C)=O)C1/C(C)=C(/O)C(=O)C2=C(C)[C@@H](OC(=O)[C@H](O)[C@H](CC(C)C)NC(=O)OC(C)(C)C)C[C@@](O)([C@H]1OC(=O)c1ccccc1)C2(C)C (stereo partly drawn) [Ex. 4, 13-(N-Boc-β-isobutylisoserinoyl)-7-O-methylthiomethyl-C7,8-seco-10-deacetylbaccatin III]
IC50 (MCF7/R): 501 ± 41 nM | RI (cross-resistance index) (MCF7/R): 19 | IC50 (MCF7): 26 ± 2.1 nM

CSCOCC[C@H]1OC[C@@]1(OC(C)=O)C1/C(C)=C(/OCSC)C(=O)C2=C(C)[C@@H](OC(=O)[C@H](O)[C@H](CC(C)C)NC(=O)OC(C)(C)C)C[C@@](O)([C@H]1OC(=O)c1ccccc1)C2(C)C (stereo partly drawn) [Ex. 5, 13-(N-Boc-β-isobutylisoserinoyl)-7,9-O-bis(methylthiomethyl)-C7,8-seco-10-deacetylbaccatin III]
IC50 (MCF7/R): 333 ± 23 nM | RI (cross-resistance index) (MCF7/R): 5.7 | IC50 (MCF7): 58 ± 5.9 nM

CO/C1=C(\C)C([C@]2(OC(C)=O)CO[C@@H]2CCOC(C)=O)[C@H](OC(=O)c2ccccc2)[C@]2(O)C[C@H](OC(=O)[C@H](O)[C@H](CC(C)C)NC(=O)OC(C)(C)C)C(C)=C(C1=O)C2(C)C (stereo partly drawn) [Ex. 6, 13-(N-Boc-β-isobutylisoserinoyl)-9-O-methyl-7-O-acetyl-C7,8-seco-10-deacetylbaccatin III]
IC50 (MCF7/R): 747 ± 45 nM | RI (cross-resistance index) (MCF7/R): 11 | IC50 (MCF7): 66 ± 5.4 nM

COCC[C@H]1OC[C@@]1(OC(C)=O)C1/C(C)=C(/OC)C(=O)C2=C(C)[C@@H](OC(=O)[C@H](O)[C@H](CC(C)C)NC(=O)OC(C)(C)C)C[C@@](O)([C@H]1OC(=O)c1ccccc1)C2(C)C (stereo partly drawn) [Ex. 7, 13-(N-Boc-β-isobutylisoserinoyl)-7,9-of-O-methyl-C7,8-seco-10-deacetylbaccatin III]
IC50 (MCF7/R): 168 ± 9.5 nM | RI (cross-resistance index) (MCF7/R): 6.6 | IC50 (MCF7): 25.5 ± 2.6 nM

CC(=O)O[C@@]1(C2/C(C)=C(/O)C(=O)C3=C(C)[C@@H](OC(=O)[C@H](O)[C@H](CC(C)C)NC(=O)OC(C)(C)C)C[C@@](O)([C@H]2OC(=O)c2ccccc2)C3(C)C)CO[C@@H]1CCO (stereo partly drawn) [IDN 5390, reference compound]
IC50 (MCF7/R): 1040 ± 93 nM | RI (cross-resistance index) (MCF7/R): 93 | IC50 (MCF7): 11.2 ± 0.81 nM
